Assay results reported in US8017606B2, “Quinoline derivatives as antibacterial agents” (Janssen Pharmaceutica NV, priority 2005, dated 2011).
≈ marks a conversion by molar mass, not a printed value. Counter-ions that a name gives are not always drawn.

What was measured:
[1] = tested on: Bacillus subtilis (ATCC43639); test: Microtitre plate assay, IC90 determination; assay type: cell-based; conditions: 90% inhibitory concentration for bacterial growth, 37° C., resazurin fluorescence, read-out: IC90 (μg/ml) BSU 43639
Method: (§1) The bacteria used in this study were grown overnight in flasks containing 100 ml Mueller-Hinton Broth (Becton Dickinson—cat. no. 275730) in sterile de-ionized water, with shaking, at 37° C. Stocks (0.5 ml/tube) were stored at −70° C. until use. Bacteria titrations were performed in microtiter plates and colony forming units (CFUs) were determined. In general, an inoculum level of approximately 100 CFUs was used for susceptibility testing.
(§2) Anti Bacterial Susceptibility Testing: IC90 Determination
(§3) Flat-bottom, sterile 96-well plastic microtiter plates were filled with 180 μl of sterile deionized water, supplemented with 0.25% BSA. Subsequently, stock solutions (7.8×final test concentration) of compounds were added in 45 μl volumes in column 2 Serial five-fold dilutions (45 μl in 180 μl) were made directly in the microtiter plates from column 2 to reach column 11. Untreated control samples with (column 1) and without (column 12) inoculum were included in each microtiter plate. Depending on the bacteria type, approximately 10 to 60 CFU per well of bacteria inoculum (100 TCID50), in a volume of 100 μl in 2.8× Mueller-Hinton broth medium, was added to the rows A to H, except column 12. The same volume of broth medium without inoculum was added to column 12 in row A to H. The cultures were incubated at 37° C. for 24 hours under a normal atmosphere (incubator with open air valve and continuous ventilation). At the end of incubation, one day after inoculation, the bacterial growth was quantitated fluorometrically. Therefore resazurin (0.6 mg/ml) was added in a volume of 20 μl to all wells […], and the plates were re-incubated overnight. A change in colour from blue to pink indicated the growth of bacteria.
(§4) The fluorescence was read in a computer-controlled fluorometer (Cytofluor Biosearch) at an excitation wavelength of 530 nm and an emission wavelength of 590 nm. The % growth inhibition achieved by the compounds was calculated according to standard methods. The IC90 (expressed in μg/ml) was defined as the 90% inhibitory concentration for bacterial growth.

[2] = tested on: Enterococcus faecalis (ATCC29212); test: Microtitre plate assay, IC90 determination; assay type: cell-based; conditions: 90% inhibitory concentration for bacterial growth, 37° C., resazurin fluorescence, read-out: IC90 (μg/ml) EFA 29212
Method: as §1, §2, §3, §4

[3] = tested on: Listeria monocytogenes (ATCC49594); test: Microtitre plate assay, IC90 determination; assay type: cell-based; conditions: 90% inhibitory concentration for bacterial growth, 37° C., resazurin fluorescence, read-out: IC90 (μg/ml) LMO 49594
Method: as §1, §2, §3, §4

[4] = tested on: Pseudomonas aeruginosa (ATCC27853); test: Microtitre plate assay, IC90 determination; assay type: cell-based; conditions: 90% inhibitory concentration for bacterial growth, 37° C., resazurin fluorescence, read-out: IC90 (μg/ml) PAE 27853
Method: as §1, §2, §3, §4

[5] = tested on: Staphylococcus aureus (ATCC25923); test: Microtitre plate assay, IC90 determination; assay type: cell-based; conditions: 90% inhibitory concentration for bacterial growth, 37° C., resazurin fluorescence, read-out: IC90 (μg/ml) STA 25923
Method: as §1, §2, §3, §4

[6] = tested on: Staphylococcus aureus (ATCC29213); test: Microtitre plate assay, IC90 determination; assay type: cell-based; conditions: 90% inhibitory concentration for bacterial growth, 37° C., resazurin fluorescence, read-out: IC90 (μg/ml) STA 29213
Method: as §1, §2, §3, §4

[7] = tested on: Staphylococcus aureus (ATCC43300); test: Microtitre plate assay, IC90 determination; assay type: cell-based; conditions: 90% inhibitory concentration for bacterial growth, 37° C., resazurin fluorescence, read-out: IC90 (μg/ml) STA 43300
Method: as §1, §2, §3, §4

[8] = tested on: Streptococcus mutans (ATCC33402); test: Microtitre plate assay, IC90 determination; assay type: cell-based; conditions: 90% inhibitory concentration for bacterial growth, 37° C., resazurin fluorescence, read-out: IC90 (μg/ml) SMU 33402
Method: as §1, §2, §3, §4

[9] = tested on: Streptococcus pneumoniae (ATCC6305); test: Microtitre plate assay, IC90 determination; assay type: cell-based; conditions: 90% inhibitory concentration for bacterial growth, 37° C., resazurin fluorescence, read-out: IC90 (μg/ml) SPN 6305
Method: as §1, §2, §3, §4

[10] = tested on: Streptococcus pyogens (ATCC8668); test: Microtitre plate assay, IC90 determination; assay type: cell-based; conditions: 90% inhibitory concentration for bacterial growth, 37° C., resazurin fluorescence, read-out: IC90 (μg/ml) SPY 8668
Method: as §1, §2, §3, §4

[11] = tested on: methicilline resistant Staphylococcus aureus (MRSA) (a clinical isolate from the University of Antwerp); test: Microtitre plate assay, IC90 determination; assay type: cell-based; conditions: 90% inhibitory concentration for bacterial growth, 37° C., resazurin fluorescence, read-out: IC90 (μg/ml) STA RMETHIC
Method: as §1, §2, §3, §4

[12] = tested on: Enterococcus faecalis (ATCC14506); test: Microtitre plate assay, IC90 determination; assay type: cell-based; conditions: 90% inhibitory concentration for bacterial growth, 37° C., resazurin fluorescence, read-out: IC90 (μg/ml) EFA 14506
Method: as §1, §2, §3, §4

IC90 [1]	IC90 [2]	IC90 [3]	IC90 [4]	IC90 [5]	IC90 [6]	IC90 [7]	IC90 [8]	IC90 [9]	IC90 [10]	melting point	IC90 [12]	SMILES	IC90 [11]
11.4 µg/mL (≈ 25.2 µM)	11.4 µg/mL (≈ 25.2 µM)	11.4 µg/mL (≈ 25.2 µM)	9 µg/mL (≈ 19.9 µM)	11.4 µg/mL (≈ 25.2 µM)	9 µg/mL (≈ 19.9 µM)	9 µg/mL (≈ 19.9 µM)	9 µg/mL (≈ 19.9 µM)	11.4 µg/mL (≈ 25.2 µM)	9 µg/mL (≈ 19.9 µM)	–	–	COc1nc2cccc(C(O)(CCN(C)C)c3cc4ccccc4o3)c2cc1-c1ccccc1 (stereo not shown) [Compound 6]	10.1 µg/mL (≈ 22.3 µM)
–	14.2 µg/mL (≈ 25.2 µM)	14.2 µg/mL (≈ 25.2 µM)	14.2 µg/mL (≈ 25.2 µM)	12.6 µg/mL (≈ 22.4 µM)	14.2 µg/mL (≈ 25.2 µM)	–	11.2 µg/mL (≈ 19.9 µM)	12.6 µg/mL (≈ 22.4 µM)	11.2 µg/mL (≈ 19.9 µM)	136 °C	–	CN(C)CCC(O)(c1cc(F)cc(F)c1)c1cc(Br)cc2cc(-c3ccccc3)c(-n3ccnc3)nc12 (stereo not shown) [Compound 22]	14.2 µg/mL (≈ 25.2 µM)
9.2 µg/mL (≈ 19.9 µM)	11.6 µg/mL (≈ 25.1 µM)	11.6 µg/mL (≈ 25.1 µM)	9.2 µg/mL (≈ 19.9 µM)	11.6 µg/mL (≈ 25.1 µM)	9.2 µg/mL (≈ 19.9 µM)	9.2 µg/mL (≈ 19.9 µM)	9.2 µg/mL (≈ 19.9 µM)	11.6 µg/mL (≈ 25.1 µM)	9.2 µg/mL (≈ 19.9 µM)	–	8.2 µg/mL (≈ 17.7 µM)	COc1nc2cccc(C(O)(CCN(C)C)c3cccc4ccccc34)c2cc1-c1ccccc1 (stereo not shown) [Compound 2]	11.6 µg/mL (≈ 25.1 µM)
10.5 µg/mL (≈ 20 µM)	10.5 µg/mL (≈ 20 µM)	10.5 µg/mL (≈ 20 µM)	10.5 µg/mL (≈ 20 µM)	11.7 µg/mL (≈ 22.3 µM)	10.5 µg/mL (≈ 20 µM)	10.5 µg/mL (≈ 20 µM)	10.5 µg/mL (≈ 20 µM)	10.5 µg/mL (≈ 20 µM)	10.5 µg/mL (≈ 20 µM)	–	10.5 µg/mL (≈ 20 µM)	CN(C)CCC(O)(c1cccs1)c1cc(Br)cc2cc(Cc3ccccc3)c(N(C)C)nc12 (stereo not shown) [Compound 46]	9.3 µg/mL (≈ 17.7 µM)
14.5 µg/mL (≈ 25.1 µM)	14.5 µg/mL (≈ 25.1 µM)	14.5 µg/mL (≈ 25.1 µM)	14.5 µg/mL (≈ 25.1 µM)	12.9 µg/mL (≈ 22.3 µM)	14.5 µg/mL (≈ 25.1 µM)	11.5 µg/mL (≈ 19.9 µM)	11.5 µg/mL (≈ 19.9 µM)	14.5 µg/mL (≈ 25.1 µM)	11.5 µg/mL (≈ 19.9 µM)	–	–	CN(C)CCC(O)(c1cc(F)cc(F)c1)c1cc(Br)cc2cc(Cc3ccccc3)c(-n3ccnc3)nc12 (stereo not shown) [Compound 19]	14.5 µg/mL (≈ 25.1 µM)
12.7 µg/mL (≈ 25.1 µM)	–	40.2 µg/mL (≈ 79.5 µM)	12.7 µg/mL (≈ 25.1 µM)	11.3 µg/mL (≈ 22.4 µM)	10.1 µg/mL (≈ 20 µM)	–	10.1 µg/mL (≈ 20 µM)	11.3 µg/mL (≈ 22.4 µM)	10.1 µg/mL (≈ 20 µM)	66 °C	11.3 µg/mL (≈ 22.4 µM)	COc1nc2c(C(O)(CCN(C)C)c3ccccc3)cc(Br)cc2cc1Cc1ccccc1 (stereo not shown) [Compound 8]	11.3 µg/mL (≈ 22.4 µM)
60.3 µg/mL (≈ 100 µM)	60.3 µg/mL (≈ 100 µM)	60.3 µg/mL (≈ 100 µM)	47.9 µg/mL (≈ 79.5 µM)	53.7 µg/mL (≈ 89.1 µM)	53.7 µg/mL (≈ 89.1 µM)	–	47.9 µg/mL (≈ 79.5 µM)	60.3 µg/mL (≈ 100 µM)	47.9 µg/mL (≈ 79.5 µM)	131 °C	–	CN(C)CCC(O)(c1ccccc1)c1cc(Br)cc2cc(Cc3ccccc3)c(OCCN3CCCCC3)nc12 (stereo not shown) [Compound 48]	60.3 µg/mL (≈ 100 µM)
–	–	–	–	–	–	–	–	–	–	136 °C	–	CN(C)CCC(O)(c1cc(F)cc(F)c1)c1cccc2nc(N(C)C)c(-c3ccccc3)cc12 (stereo not shown) (as salt: salt) [Compound 45]	–
13.6 µg/mL (≈ 25.1 µM)	13.6 µg/mL (≈ 25.1 µM)	13.6 µg/mL (≈ 25.1 µM)	10.8 µg/mL (≈ 19.9 µM)	12.1 µg/mL (≈ 22.3 µM)	10.8 µg/mL (≈ 19.9 µM)	10.8 µg/mL (≈ 19.9 µM)	10.8 µg/mL (≈ 19.9 µM)	12.1 µg/mL (≈ 22.3 µM)	10.8 µg/mL (≈ 19.9 µM)	–	10.8 µg/mL (≈ 19.9 µM)	COc1nc2c(C(O)(CCN(C)C)c3cc(F)cc(F)c3)cc(Br)cc2cc1Cc1ccccc1 (stereo not shown) [Compound 12]	12.1 µg/mL (≈ 22.3 µM)
